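Cultured in 96-well plates, cells were exposed to test compound for 48 hours across five concentrations. TGI: total growth inhibition.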
Experiments:
Assay in all cases: NCI tumour cell line growth inhibition, 48 h
OVCAR-5 ovarian = tested on: OVCAR-5 ovarian
EKVX NSCLC = tested on: EKVX NSCLC
MDA-N = tested on: MDA-N
SK-MEL-2 melanoma = tested on: SK-MEL-2 melanoma
NCI-H522 lung = tested on: NCI-H522 lung
BT-549 breast = tested on: BT-549 breast
HOP-92 NSCLC = tested on: HOP-92 NSCLC
SNB-19 CNS = tested on: SNB-19 CNS
M14 melanoma = tested on: M14 melanoma
MDA-MB-231 breast = tested on: MDA-MB-231 breast
OVCAR-4 ovarian = tested on: OVCAR-4 ovarian

Row | SMILES | TGI (OVCAR-5 ovarian) [µM] | TGI (EKVX NSCLC) [µM] | TGI (MDA-N) [µM] | TGI (SK-MEL-2 melanoma) [µM] | TGI (NCI-H522 lung) [µM] | TGI (BT-549 breast) [µM] | TGI (HOP-92 NSCLC) [µM] | TGI (SNB-19 CNS) [µM] | TGI (M14 melanoma) [µM] | TGI (MDA-MB-231 breast) [µM] | TGI (OVCAR-4 ovarian) [µM]
1 | Cc1nn2c(N)cc(=O)nc2nc1/C=C/c1ccc(N(C)C)cc1 | > 100 | > 100 | > 100 | > 100 | 7.62 | > 100 | > 43.6 | > 100 | > 100 | > 100 | > 100
2 | NC(CCCCCP(=O)(O)O)C(=O)O (stereo unspecified) | > 100 | > 100 | > 100 | > 100 | > 100 | > 100 | > 100 | > 100 | > 100 | > 100 | > 100
3 | C/C(CC(O)(C(F)(F)F)C(F)(F)F)=N\N | > 10 | > 10 | > 10 | > 10 | > 10 | > 10 | > 10 | > 10 | > 10 | > 10 | > 10
4 | COCCc1c(C)c(C#N)c2n(C)c3ccccc3n2c1=O | > 10 | > 10 | > 10 | > 10 | > 10 | > 10 | > 10 | > 10 | > 10 | > 10 | > 10
5 | COc1cc(/C=C2\C(=O)N(c3cccc(Cl)c3)C(c3ccccc3)S2(=O)=O)cc(OC)c1OC (stereo unspecified) | > 100 | > 100 | 46.6 | > 100 | 55.8 | > 100 | > 100 | > 100 | > 100 | > 100 | > 100
6 | CCN(CC)CCn1ncc2ccc3c(c(=O)c4cccnc4n3CCN(CC)CC)c21 | > 7.07 | 6.83 | 2.15 | 3.51 | 2.35 | 5.11 | 4.37 | 9.97 | 2.79 | 4.07 | 2.87
7 | COc1cc2c(cc1C)NC(=O)/C2=C/c1c(Cl)[nH]c2cc(C)c(OC)cc12 | 25.8 | 22.8 | 8.93 | 22.1 | 19.8 | 9.92 | 23.7 | 20.4 | 13.7 | 33.2 | 18
8 | C/C(Cl)=N\OC(=O)Nc1ccc([N+](=O)[O-])cc1 | 30.8 | 35.2 | 25.1 | 32.5 | 3.75 | 66.7 | 5.65 | 33.1 | 26.1 | 37.1 | 28.2
9 | O=C(N/N=C(/COc1cccc(Cl)c1)N=Cc1ccncc1)c1ccncc1 | > 100 | > 100 | > 100 | > 100 | > 100 | > 100 | > 100 | > 100 | > 100 | > 100 | > 100
10 | Nn1c(CNc2ccc(-c3nnc(Nc4ccc(Cl)cc4)n3N)cc2)nnc1Nc1ccc(Cl)cc1 | > 100 | > 100 | > 100 | > 100 | > 100 | > 100 | > 100 | > 100 | > 100 | > 100 | > 100
11 | C=CCN1CCC(OC(=O)C(O)(/C=C\CC)C2CCCC2)CC1 (stereo unspecified) | > 100 | > 100 | > 100 | > 100 | > 100 | > 100 | > 100 | > 100 | > 100 | > 100 | > 100
12 | CCCCc1ccc(Nc2nc3c(ncn3C3OC(COC(C)=O)C(OC(C)=O)C3OC(C)=O)c(=O)[nH]2)cc1 (stereo unspecified) | > 100 | > 100 | 35.4 | 31 | 32.8 | 32.2 | 30.4 | 81.5 | 41.2 | 31.1 | 52.9
13 | CC(C)(C)OC(=O)N1C(C2=COc3ccccc3O2)=COc2ccccc21 | 99.1 | 52.3 | > 100 | 53.2 | 40.8 | 71.4 | 73.2 | > 100 | > 100 | 69.6 | > 100
14 | CCOC(=O)c1ccc(N=C2SC(=S)N(c3ccc(F)cc3)C2=Nc2ccc(C(=O)OCC)cc2)cc1 | 38.7 | 63.9 | 35.4 | 35 | 19.1 | 40.6 | 26 | > 100 | 25.6 | 25.2 | 33.4
15 | O=[N+]([O-])c1cc2n[nH]nc2c2nonc12 | 76.5 | > 100 | 80.5 | > 100 | 32.6 | 24.1 | > 100 | > 100 | 47.4 | > 100 | > 100
16 | C=C1CC(OC(C)=O)/C=C(/C)CCC(C(C)(C)O)CC1O (stereo unspecified) | > 100 | > 100 | > 100 | > 100 | > 100 | > 100 | > 100 | > 100 | > 100 | > 100 | > 100
17 | Oc1c(C(O)(c2ccccc2)c2ccc3ccccc3c2O)ccc2ccccc12 | 38.3 | 50.7 | 28.5 | 26.4 | 16.5 | 42.3 | 24.1 | 28.7 | 31 | 33.6 | > 47.8
18 | NS(=O)(=O)c1nnc(NC(=O)CCC(=O)O)s1 | > 100 | > 100 | > 100 | > 100 | > 100 | > 100 | > 100 | > 100 | > 100 | > 100 | > 100
19 | COC(=O)N1CC[C@@H]2CCC=C(c3cccc4c3OCO4)[C@@H]21 | > 100 | > 100 | > 100 | > 100 | > 100 | > 100 | > 100 | > 100 | > 100 | > 100 | > 100
20 | CCN(CC)CCN1c2ccccc2Sc2ccc3ccccc3c21 | 23 | 20.1 | 25.3 | 27.9 | 27.9 | 29.9 | 12.8 | 29.6 | 8.52 | 18.3 | 17
21 | CN1CN(c2ccccc2)C2(CCNCC2)C1=O | > 100 | > 100 | > 100 | > 100 | > 100 | > 100 | > 100 | > 100 | > 100 | > 100 | > 100
22 | Cc1csc2c(P(=O)(OC(C)C)OC(C)C)c(-c3ccccc3)cn12 | 28.8 | 32.5 | 32.5 | 32.5 | 30.7 | 36 | 33.5 | 28.4 | 34.7 | 41.1 | 33
23 | CCOC(=O)C(SCCO)C(C(=O)OCC)n1ccc(N)nc1=O (stereo unspecified) | > 100 | > 100 | > 100 | > 100 | > 100 | > 100 | > 100 | > 100 | > 100 | > 100 | > 100
24 | COc1cc(N=C(N)N=C(N)N)c2ncccc2c1 | > 100 | > 100 | > 100 | > 100 | > 100 | > 100 | > 100 | > 100 | > 100 | > 100 | > 100
25 | COc1ccc(C2CCc3nc4nc(N)nc(N)c4cc3C2)cc1 (stereo unspecified) | > 100 | > 100 | > 100 | 42.3 | > 100 | 70.6 | 9.31 | 31.8 | > 100 | 42 | 67.4
26 | COC(=O)C12CCC(C(=O)OC)(Cc3c(c4ccccc4n3S(=O)(=O)c3ccccc3)C1)C2=O (stereo unspecified) | > 94.6 | > 100 | > 100 | > 100 | 97.1 | > 100 | > 100 | > 100 | > 100 | > 100 | > 100
